These results are taken from article PMC6472001, “Phenolic Compounds from Humulus lupulus as Natural Antimicrobial Products: New Weapons in the Fight against Methicillin Resistant Staphylococcus aureus, Leishmania mexicana and Trypanosoma brucei Strains” (Molecules, 2019).

Series [1] concerns Hep-G2 cells (hepatocellular carcinoma). Put plainly: Cytotoxicity / antiproliferative effect. Format: cell-based, human. The procedure: (§1) Several human cell lines were used for the cytotoxic bioassays: non-cancer lung fibroblasts (WI-38), hepatocellular carcinoma (Hep-G2), osteosarcoma (MG-63) and the mouse monocyte macrophage J774. Cells were seeded into wells of a 96-well microplate in a Gibco™ Dulbecco’s modified eagles medium (DMEM), except for MG-63 which were cultivated in a minimum essential medium (MEM) (ThermoFisher Scientific, Illkirch-Graffenstaden, France). Both media were enriched with 10% FBS (ThermoFisher Scientific, France) and some antibiotics (mixture penicillin/streptomycin 100 UI/mL, Sigma Aldrich). After one or two days at 37 °C (5% of CO2), wells were emptied by suction. Cells were then treated with hops compounds (xanthohumol, desmethylxanthohumol, humulone, lupulone) in DMSO at 0.2% in the culture medium, to obtain a final volume of 100 µL in wells (negative control: 0.2% DMSO). Camptothecin was used as a positive control. After 48 to 72 h exposure, culture medium was replaced by 10% of Alamar blue or 3-(4,5-dimethylthiazol-2-yl)-2,5-diphenyltetrazolium bromide (MTT) in the medium (ThermoFisher Scientific®, Illkirch, France) and plates were incubated the time necessary to the reaction. Results were measured respectively by fluorescence (excitation 530 nm and emission 590 nm) or by optical density at 550 nm. The IC50 of each product was determined using GraphPad Prism (version 5.01).

Series [2] relates to WI-38 cells (non-cancer lung fibroblasts). The experiment in a line: Cytotoxicity / antiproliferative effect. In kind it is cell-based, human. The procedure:
as §1

Series [3] relates to J774 cells (monocyte macrophage). Put plainly: Cytotoxicity / antiproliferative effect. In kind it is cell-based, mouse. The procedure: as §1
Series [4] concerns MG-63 cells (osteosarcoma). Put plainly: cells. Format: cell-based, human. The procedure: as §1
The test system of a further series is S. aureus T28.1. Put plainly: Kill curves. Format: cell-based, Staphylococcus aureus. The procedure:
This experiment allowed following in time the effect of the product on a growing bacterial population, highlighting the bactericidal or bacteriostatic effect. Stock solutions of xanthohumol, desmethylxanthohumol and lupulone were prepared in DMSO 20 times more concentrated than the desired final concentrations (MIC/4 to 4xMIC). An aliquot of 0.5 mL of purified product in DMSO was added to 8.5 mL of brain heart infusion (BHI) medium (Oxoid, UK). 1 mL of bacterial suspension at 10^5 CFU/mL was then introduced to the culture tube. A 5% DMSO control served as a negative control and was performed at each test. Culture tubes were incubated at 37 °C for 24 h. Counts were made every 2 h until 8 h and at 24 h by plating aliquots of serial tenfold dilutions on MHA. The determined bacterial concentrations were then converted into log(CFU/mL) and were expressed as a function of time. The detection threshold of this method was 10 CFU/mL and 1 log(CFU/mL) on graphics.

The test system of series [5] is selected S. aureus strains. The experiment in a line: Broth microdilution MIC, range over strains. In kind it is cell-based. Particulars: Staphylococcus aureus; range over MRSA and MSSA strains of Table 3; read-out: MIC against selected S. aureus strains. The procedure:
(§2) The protocol employed was inspired by Abedini et al. with some modifications. Products were solubilized in DMSO and serially diluted two-fold in MH medium. A bacterial suspension at 10^5 CFU/mL was added to obtain a final volume of 200 µL. Final phenolic product concentrations in wells ranged from 625 to 2.4 µg/mL (exception for lupulone for which dilutions were continued until 0.3 µg/mL). […] Plates were incubated overnight with stirring (60 rpm) at 37 °C.

In a further series the test system is MRSA strains. Put plainly: Broth microdilution MIC, range over strains. In kind it is cell-based. Particulars: Staphylococcus aureus, read-out: MICs towards MRSA strains. The procedure:
as §2
(Dilution methods test growth across graded concentrations, often in twofold steps.)

For a further series, the system named is S. aureus T28.1 biofilm. Put plainly: Anti-biofilm: biofilm formation on synthetic bone substitute. Format: cell-based, Staphylococcus aureus. The settings on record: at MIC. The procedure: β-Tricalcium phosphate discs (Cerasorb®, Curasan, Germany) were used as bone substitute. Non-glucose enriched BHI medium was used here, because the bacterial glucose metabolism causes an acidification of the culture medium which leads to the disintegration of the discs. Discs were introduced in a 24-well plate: 1.8 mL of BHI media were added with 0.1 mL of product in DMSO (5%) and 0.1 mL of a 10^5 CFU/mL bacterial suspension. Final concentrations of hop phenolic compounds were from MIC/4 to 4 × MIC. After 24 h at 37 °C, counts were performed in two steps. First, planktonic bacteria were counted from 100 µL of the culture supernatant by plating tenfold dilutions on MHA. Then, bacteria adhering to the discs were counted: discs were removed and washed with a CR solution, then, 10 mL of CR were added to each disk and treated 1 min by sonication (35 kHz) and 30 s by vortex. The obtained suspension was enumerated as previously. The detection threshold was also 1 log(CFU/mL).

Another series concerns lung cell line. On the set-up: method as in PMID 26664015. Particulars: cited from earlier work.
The subject of another series is Plasmodium falciparum. On the set-up: method as in PMID 15824094. The settings on record: cited from earlier work.
For series [6], the system named is human hepatocellular carcinoma. On the set-up: method as in PMID 18814205. The settings on record: cited from earlier work.
Another series deals with mice. On the set-up: method as in PMID 20427021. The settings on record: approximately 1000 mg/kg of body weight of mice; cited from earlier work.
Another series concerns Leishmania amazonensis. Also on record: method as in PMID 27938439. Particulars: cited from earlier work.
The subject of the next series is biofilm formation. Also on record: method as in PMID 24175280. Particulars: at the MIC; cited from earlier work.
In the next series the test system is humans. Also on record: method as in PMID 24038952. The settings on record: up to 180 mg in humans for a short intake; cited from earlier work.
Where [7] appears, read: Homo sapiens, HepG2, read-out: IC50 ± SD.
Setting [8] is: Homo sapiens, HepG2, value in parentheses, read-out: IC50 (converted).
Where [9] appears, read: Homo sapiens, read-out: IC50 ± SD.
Setting [10] is: Homo sapiens, value in parentheses, read-out: IC50 (converted).
Setting [11] is: Mus musculus, read-out: IC50 ± SD.
The mark [12] stands for this setting: Mus musculus, value in parentheses, read-out: IC50 (converted).
[13] abbreviates: Homo sapiens, MG-63, read-out: IC50 ± SD.
Where [14] appears, read: Homo sapiens, MG-63, value in parentheses, read-out: IC50 (converted).
Where [15] appears, read: value in parentheses, read-out: IC50 (converted).

In brackets after ≈: the same amount, converted by molar mass. Like-named read-outs stand apart in the source and are kept apart here.

`CC(C)=CCc1c(O)cc(O)c(C(=O)/C=C/c2ccc(O)cc2)c1O` [DMX, desmethylxanthohumol]: the half-inhibitory concentration (IC50) (usually the concentration at which inhibition is half-maximal) in series [1] (setting [7]) was 22.4 ± 2.9 µg/mL; in series [1] (setting [8]) it was 65.9 µM; in series [2] (setting [9]), 60.7 ± 2.5 µg/mL; in series [2] (setting [10]), 178 µM; in [3] (setting [11]), 9.7 ± 1 µg/mL; in [3] (setting [12]), 28.5 µM. For the same molecule, the half-inhibitory concentration (IC50) in [4] (setting [13]) is 39.5 ± 3.3 µg/mL; in series [4] (setting [14]), 116 µM. Further, in the series with S. aureus T28.1 (2 × MIC, after 24 h), the “Bacterial population reached (detection threshold)” value is 1 log(CFU/mL). Also, the MIC (in [5]; in the series with MRSA strains) was 19.5 to 39 µg/mL (≈ 57.3 to 115 µM) throughout. In addition, in the series on S. aureus T28.1 biofilm, the “Biofilm formation on bone substitute discs” value is “significant decrease”.
On to `COc1cc(O)c(CC=C(C)C)c(O)c1C(=O)/C=C/c1ccc(O)cc1` [XN, xanthohumol], for which the IC50 with lung cell line was ~100 µg/mL (≈ 282 µM); in the series with Plasmodium falciparum, “in the µM range”; in series [1] (setting [7]) it was 2.5 ± 0.8 µg/mL; in series [1] (setting [8]), 7.1 µM; in [2] (setting [9]) it was 6.9 ± 0.5 µg/mL; in series [2] (setting [10]), 19.5 µM. Besides, the concentration for half-maximal inhibition (IC50) in series [3] (setting [11]) was 3.4 ± 0.5 µg/mL; in series [3] (setting [12]), 9.6 µM; in series [6], “about 75 µg/mL”; in series [4] (setting [13]), 10.4 ± 2.6 µg/mL; in series [4] (setting [14]), 29.4 µM; in the series on Leishmania amazonensis it was “in the µM range”. In addition, the Safety in vivo result in the series on mice and in the series on humans was “good safety” in each case. Also, the “Decrease of the bacterial population” value in the series on S. aureus T28.1 (2xMIC, first 4 h) is given as “around 3 log(CFU/mL)”; with S. aureus T28.1 (MIC/2, first 6 h) it was 0.5 log(CFU/mL); in the series with S. aureus T28.1 (at the MIC, during 24 h), 2 log(CFU/mL). Further, the MIC (in series [5]; in the series with MRSA strains) was 9.8 to 19.5 µg/mL (≈ 27.7 to 55 µM) each time. Also, the “Inhibition of biofilm formation” value in the series with biofilm formation is given as 86.5%.
On to lupulone, for which the “IC50 ± SD” value in series [1] was determined as 1.2 ± 0.5 µg/mL; in series [2], 1.1 ± 0.0 µg/mL; in [3], 1.5 ± 0.1 µg/mL; in [4] (MG-63), 4.3 ± 0.4 µg/mL. The IC50 was 2.9 µM in [1] (setting [15]); 2.6 µM in series [2] (setting [15]); 3.6 µM in series [3] (setting [15]); 10.4 µM in [4] (MG-63, value in parentheses, read-out: IC50 (converted)). For the same molecule, in [4], the cell viability – broadly, a per cent measure of how many cells are alive, often set against a control – is listed as ~100%. The selectivity index in series [4] (antibacterial activity compared to cytotoxicity against MG-63) is recorded as > 4. In the series with S. aureus T28.1 (2 × MIC), the “Reduction between the control and 2 × MIC” value was “about 3 log(CFU/mL)”. The “Kill curve effect at 4 × MIC” value in the series with S. aureus T28.1 (4 × MIC) was “slightly decreased the bacterial population”. For the same molecule, the “Biofilm formation on bone substitute discs” value in the series with S. aureus T28.1 biofilm is listed as “significant decrease”.
